Source: ChEMBL document CHEMBL5634141 (Eur J Med Chem, 2023)
The source made the active and inactive calls. The rule behind the calls is not given here.

What was measured:
[1] = test system: von Hippel-Lindau disease tumor suppressor/GTPase KRas (Homo sapiens), P01116+P40337 [G12C]; assay: PROTAC activity at VHL/KRAS G12C mutant in human NCI-H358 cells assessed as inhibition of ERK phosphorylation at 100 nM incubated for 1 to 8 days by Western blotting analysis; type: cell-based; settings: time 1-8 day
SW837 [2] = assay: Antiproliferative activity against human SW837 cells expressing KRAS G12C mutant assessed as relative cell viability at 30 nM incubated for 72 hrs in presence of selumetinib by CCK-8 assay; type: functional; settings: read-out: Activity
NCI-H358 [3] = assay: Antiproliferative activity against human NCI-H358 cells expressing KRAS G12C mutant assessed as relative cell viability at 30 nM incubated for 72 hrs in presence of naporafenib by CCK-8 assay; type: functional; settings: read-out: Activity
MIA PaCa-2 [4] = assay: Inhibition of cell migration in human MIA PaCa-2 cells incubated for 12 hrs by wound healing assay; type: functional, cell-based; settings: dose 30-300 nM
Mus musculus [5] = assay: In vivo PROTAC activity at VHL/KRAS G12C mutant in BALB/c nude mouse xenografted with human MIA PaCa-2 cells assessed as decrease in AKT phosphorylation at 10 to 30 mg/kg, ip administered for 16 days by Western blot analysis; type: functional, organism-based; settings: dose 10-30 mg/kg, time 16.0 day
MIA PaCa-2 [6] = assay: Antitumor activity against human MIA PaCa-2 cells xenografted in BALB/c nude mouse assessed as reduction in percentage of KRAS-positive cells at 10 to 30 mg/kg, ip administered for 16 days by immunohistochemical staining analysis; type: functional, organism-based; settings: dose 10-30 mg/kg, time 16.0 day
MIA PaCa-2 [7] = assay: Induction of apoptosis in human MIA PaCa-2 cells assessed as viable cells at 30 nM incubated for 48 hrs by Annexin V-FITC staining based flow cytometry analysis (reference value: 91.5 %); type: functional; settings: read-out: Activity
[8] = test system: von Hippel-Lindau disease tumor suppressor/GTPase KRas (Homo sapiens), P01116+P40337 [G12C]; assay: PROTAC activity at VHL/KRAS G12C mutant in human MIA PaCa-2 cells assessed as induction of protein degradation in presence of MLN4924 by Western blot analysis; type: cell-based
NCI-H358 [9] = assay: Induction of apoptosis in human NCI-H358 cells assessed as viable cells at 30 nM incubated for 48 hrs by Annexin V-FITC staining based flow cytometry analysis (reference value: 91.6 %); type: functional; settings: read-out: Activity
MIA PaCa-2 [10] = assay: Antiproliferative activity against human MIA PaCa-2 cells expressing KRAS G12C mutant assessed as reduction of cell growth by measuring fold decrease in IC50 incubated for 72 hrs in presence of SHP099 by CCK-8 assay; type: functional
MIA PaCa-2 [11] = assay: Induction of apoptosis in human MIA PaCa-2 cells assessed as late apoptotic cells at 30 nM incubated for 48 hrs by Annexin V-FITC staining based flow cytometry analysis (reference value: 5.69 %); type: functional
NCI-H358 [12] = assay: Synergistic antiproliferative activity against human NCI-H358 cells expressing KRAS G12C mutant assessed as combination index incubated for 72 hrs in presence of AZD4573 by CCK-8 assay; type: functional
[13] = Toxicity in BALB/c nude mouse xenografted with human MIA PaCa-2 cells assessed as change in body weight at 10 to 30 mg/kg, ip measured after 16 days; type: organism-based; settings: in vivo, 384 h, dose 10-30 mg/kg, time 16 day
NCI-H358 [14] = assay: Antiproliferative activity against human NCI-H358 cells expressing KRAS G12C mutant assessed as reduction of cell growth by measuring fold decrease in IC50 incubated for 72 hrs in presence of AZD4573 by CCK-8 assay; type: functional
NCI-H358 [15] = assay: Induction of apoptosis in human NCI-H358 cells assessed as necrotic cells at 100 nM incubated for 48 hrs by Annexin V-FITC staining based flow cytometry analysis (reference value: 1.62 %); type: functional
Mus musculus [16] = assay: In vivo PROTAC activity at VHL/KRAS G12C mutant in BALB/c nude mouse xenografted with human MIA PaCa-2 cells assessed as decrease in ERK phosphorylation at 10 to 30 mg/kg, ip administered for 16 days by Western blot analysis; type: functional, organism-based; settings: dose 10-30 mg/kg, time 16.0 day
MIA PaCa-2 [17] = assay: Antitumor activity against human MIA PaCa-2 cells xenografted in BALB/c nude mouse assessed as reduction in percentage of CD31-positive cells at 10 to 30 mg/kg, ip administered for 16 days by immunohistochemical staining analysis; type: functional, organism-based; settings: dose 10-30 mg/kg, time 16.0 day
MIA PaCa-2 [18] = assay: Induction of cell cycle arrest in human MIA PaCa-2 cells assessed as accumulation of cells at G2/M phase incubated for 48 hrs by propidium iodide staining based flow cytometry analysis; type: functional; settings: dose 30-300 nM
[19] = test system: von Hippel-Lindau disease tumor suppressor/GTPase KRas (Homo sapiens), P01116+P40337 [G12C]; assay: PROTAC activity at VHL/KRAS G12C mutant in human MIA PaCa-2 cells assessed as induction of protein degradation at 300 nM incubated for 24 hrs by Western blotting analysis relative to control; type: cell-based
MIA PaCa-2 [20] = assay: Antiproliferative activity against human MIA PaCa-2 cells expressing KRAS G12C mutant assessed as relative cell viability at 30 nM incubated for 72 hrs in presence of naporafenib by CCK-8 assay; type: functional; settings: read-out: Activity
[21] = Half life in ICR mouse at 2 mg/kg, iv measured after 24 hrs by LC-MS/MS analysis; type: ADME, organism-based; settings: in vivo
[22] = test system: von Hippel-Lindau disease tumor suppressor/GTPase KRas (Homo sapiens), P01116+P40337 [G12C]; assay: PROTAC activity at VHL/KRAS G12C mutant in human NCI-H358 cells assessed as induction of protein degradation at 100 nM incubated for 48 hrs followed by compound washout by Western blotting analysis; type: cell-based
MIA PaCa-2 [23] = assay: Induction of apoptosis in human MIA PaCa-2 cells assessed as necrotic cells at 300 nM incubated for 48 hrs by Annexin V-FITC staining based flow cytometry analysis (reference value: 1.25 %); type: functional
NCI-H358 [24] = assay: Antiproliferative activity against human NCI-H358 cells expressing KRAS G12C mutant assessed as relative cell viability at 30 nM incubated for 72 hrs in presence of daclolisib by CCK-8 assay; type: functional; settings: read-out: Activity
MIA PaCa-2 [25] = assay: Antiproliferative activity against human MIA PaCa-2 cells expressing KRAS G12C mutant assessed as relative cell viability at 30 nM incubated for 72 hrs in presence of crizotinib by CCK-8 assay; type: functional; settings: read-out: Activity
[26] = test system: von Hippel-Lindau disease tumor suppressor/GTPase KRas (Homo sapiens), P01116+P40337 [G12C]; assay: PROTAC activity at VHL/KRAS G12C mutant in human MIA PaCa-2 cells assessed as inhibition of Akt phosphorylation at 100 nM incubated for 1 to 8 days by Western blotting analysis; type: cell-based; settings: time 1-8 day
[27] = Toxicity in ICR mouse assessed as side effects at 30 mg/kg, ip measured after 24 hrs; type: organism-based; settings: in vivo
[28] = Half life in ICR mouse at 30 mg/kg, ip measured after 24 hrs by LC-MS/MS analysis; type: ADME, organism-based; settings: in vivo
[29] = test system: von Hippel-Lindau disease tumor suppressor/GTPase KRas (Homo sapiens), P01116+P40337 [G12C]; assay: PROTAC activity at VHL/KRAS G12C mutant in human NCI-H358 cells assessed as induction of protein degradation at 100 nM preincubated with MG132 for 6 hrs followed by compound addition and measured after 48 hrs by Western blot analysis; type: cell-based
[30] = AUC (0 to infinity) in ICR mouse at 2 mg/kg, iv measured after 24 hrs by LC-MS/MS analysis; type: ADME, organism-based; settings: in vivo
[31] = Tmax in ICR mouse at 30 mg/kg, ip measured after 24 hrs by LC-MS/MS analysis; type: ADME, organism-based; settings: in vivo
SW837 [32] = assay: Antiproliferative activity against human SW837 cells expressing KRAS G12C mutant assessed as relative cell viability at 30 nM incubated for 72 hrs in presence of infigratinib by CCK-8 assay; type: functional; settings: read-out: Activity

In the case of C=CC(=O)N1CCN(c2nc(=O)n(-c3c(C)ccnc3C(C)C)c3nc(-c4c(F)cccc4OCC4CCN(CCCC(=O)N[C@H](C(=O)N5C[C@H](O)C[C@H]5C(=O)NCc5ccc(-c6scnc6C)cc5)C(C)(C)C)CC4)c(F)cc23)[C@@H](C)C1, the Activity [1] is reported as “Active”, the viability at 0.03 µM (SW837 [2]) is reported as 0.2% and the viability at 0.03 µM (NCI-H358 [3]) is reported as 0.36%. For the same compound, the inhibition (MIA PaCa-2 [4]) was “Dose-Dependent Effect”, the Activity (Mus musculus [5]) was “Active” and the Activity (MIA PaCa-2 [6]) was “Active”. The viability at 0.03 µM (MIA PaCa-2 [7]) was 88.8%, the Activity [8] was “inactive” and the viability at 0.03 µM (NCI-H358 [9]) was 89.4%. The “fold change (FC)” value (MIA PaCa-2 [10]) was ~4, the Activity (MIA PaCa-2 [11]) was 7.18% and the CI (NCI-H358 [12]) was <1. For the same compound, the Activity [13] was “Non-Toxic”, the “fold change (FC)” value (NCI-H358 [14]) was ~6 and the Activity (NCI-H358 [15]) was 1.12%. For the same compound, the Activity (Mus musculus [16]) was “Active”, the Activity (MIA PaCa-2 [17]) was “Active” and the Activity (MIA PaCa-2 [18]) was “Dose-Dependent Effect”. It also gave an Activity [19] of 100%, a viability at 0.03 µM (MIA PaCa-2 [20]) of 0.27% and a t1/2 [21] of 0.876 h. For the same compound, the Activity [22] was “Active”, the Activity (MIA PaCa-2 [23]) was 4.08% and the viability at 0.03 µM (NCI-H358 [24]) was 0.29%. For the same compound, the viability at 0.03 µM (MIA PaCa-2 [25]) was 0.28%, the Activity [26] was “Active” and the Activity [27] was “Non-Toxic”. For the same compound, the half-life [28] was 3.87 h, the Activity [29] was “inactive” and the AUC [30] was 404 ng·h/mL. For the same compound, the Tmax [31] was 1.17 h and the viability at 0.03 µM (SW837 [32]) was 0.34%.
